Experimental data published in patent publication US11000033B2, “Ketone or oxime compound, and herbicide” (NISSAN CHEMICAL CORPORATION, priority 2014, dated 2021).

Key:
Type in all cases: in vivo
[1] = system: directly sowed rice plant; test: Test Example 3: effect on crop by foliage application, Wagner pot (symbol b); conditions: application herbicide amount 320 g/ha
Procedure, shortened: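 Steps: fill a 1/10000-are Wagner pot with alluvial soil; add water and mix to submerge at 0.1–0.5 cm depth; sow rice plus Echinochloa crus-galli var. crus-galli, Leptochloa chinensis and Cyperus difformis; grow in a 25–30 °C greenhouse.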

beet [2] = test: Test Example 5: effect on crop by foliage application, plastic box (symbol f); conditions: 320 g/ha, 3 weeks after application
Procedure, shortened: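 Box culture: sterile diluvial soil, seeds spot-sown, ~1.5 cm cover, raised under glass at 25–30° C.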

Abutilon theophrasti = test: Test Example 4: herbicidal effect by soil treatment (symbol M); conditions: application herbicide amount 320 g/ha
Procedure, shortened: (§1)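 Seeds were sown in sterilized diluvial soil, covered with about 1.5 cm of soil, and the soil surface was sprayed with a water-diluted emulsion of the compound at a predetermined rate. Plants grew in a greenhouse at 25° C. to 30° C.; effects were scored visually 3 weeks after application.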

Cyperus difformis = test: Test Example 3: herbicidal effect by foliage application, Wagner pot (symbol E); conditions: application herbicide amount 320 g/ha
Procedure, shortened: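 Post-emergence, paddy-type test: seedlings 14 d old in shallow-flooded (0.1–0.5 cm) alluvial soil, 25–30 °C greenhouse. Emulsion diluted to target rate, sprayed on leaves. Read-out: visual effect on each species at 3 weeks, per set criteria.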

beet [3] = test: Test Example 4: effect on crop by soil treatment (symbol f); conditions: application herbicide amount 320 g/ha
Procedure, shortened: (§2)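 Crop seed is sown in spots together with several weed species in a box of sterilized diluvial soil. It is covered by about 1.5 cm of soil and kept in a greenhouse held between 25° C. and 30° C.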

Veronica persica = test: Test Example 5: herbicidal effect by foliage application, plastic box (symbol R); conditions: 320 g/ha, 3 weeks after application
Procedure, shortened: (§3)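 Emulsion formulation, diluted with water to the intended rate, was applied uniformly to leaves by small sprayer. Recipients were 14-day greenhouse-grown seedlings (25° C. to 30° C.). Assessment followed at 3 weeks.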

Digitaria ciliaris [4] = test: Test Example 4: herbicidal effect by soil treatment (symbol F); conditions: application herbicide amount 320 g/ha
Procedure, shortened: as §1

[5] = system: Echinochloa oryzacola Vasing.; test: Test Example 2: herbicidal activity, application during weed generation in submerged conditions (symbol A); conditions: Table 23; application herbicide amount 320 g/ha; grade 0-5 by criteria of Test Example 1
Procedure, shortened: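 Steps: fill pots with alluvial soil; add water to 4 cm depth; co-sow the three weeds; grow at 25° C. to 30° C. under glass; at 1–2 leaves, dose the floodwater with diluted emulsion; rate damage visually after 3 weeks.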

[6] = system: Echinochloa crus-galli var. crus-galli; test: Test Example 4: herbicidal effect by soil treatment (symbol H); conditions: application herbicide amount 320 g/ha
Procedure, shortened: as §1

Digitaria ciliaris [7] = test: Test Example 5: herbicidal effect by foliage application, plastic box (symbol F); conditions: 320 g/ha, 3 weeks after application
Procedure, shortened: as §3

Apera spica-venti = test: Test Example 5: herbicidal effect by foliage application, plastic box (symbol L); conditions: 320 g/ha, 3 weeks after application
Procedure, shortened: as §3

corn = test: Test Example 4: effect on crop by soil treatment (symbol c); conditions: application herbicide amount 320 g/ha
Procedure, shortened: as §2

Lolium multiflorum Lam. = test: Test Example 4: herbicidal effect by soil treatment (symbol K); conditions: application herbicide amount 320 g/ha
Procedure, shortened: as §1

Alopecurus myosuroides = test: Test Example 5: herbicidal effect by foliage application, plastic box (symbol J); conditions: 320 g/ha, 3 weeks after application
Procedure, shortened: as §3

rice = test: Test Example 4: effect on crop by soil treatment (symbol b); conditions: application herbicide amount 320 g/ha
Procedure, shortened: as §2

wheat = test: Test Example 4: effect on crop by soil treatment (symbol e); conditions: application herbicide amount 320 g/ha
Procedure, shortened: as §2

Setaria viridis = test: Test Example 5: herbicidal effect by foliage application, plastic box (symbol G); conditions: 320 g/ha, 3 weeks after application
Procedure, shortened: as §3

SMILES | effect on crop b (directly sowed rice plant), grade 0-5 [1] | f: beet, effect on crop grade (beet [2]) | M (Abutilon theophrasti) herbicidal effect grade (Abutilon theophrasti) | herbicidal effect on E, grade 0-5 (Cyperus difformis) | f (beet) effect on crop grade (beet [3]) | R: Veronica persica, herbicidal effect grade (Veronica persica) | F (Digitaria ciliaris) herbicidal effect grade (Digitaria ciliaris [4]) | Herbicidal effect grade, A: Echinochloa oryzacola Vasing. [5] | H (Echinochloa crus-galli var. crus-galli) herbicidal effect grade [6] | F: Digitaria ciliaris, herbicidal effect grade (Digitaria ciliaris [7]) | L: Apera spica-venti, herbicidal effect grade (Apera spica-venti) | c (corn) effect on crop grade (corn) | K (Lolium multiflorum Lam.) herbicidal effect grade (Lolium multiflorum Lam.) | J: Alopecurus myosuroides, herbicidal effect grade (Alopecurus myosuroides) | b (directly sowed rice plant) effect on crop grade (rice) | e (wheat) effect on crop grade (wheat) | G: Setaria viridis, herbicidal effect grade (Setaria viridis) | other results
CC(CC1CC(O)=C(c2c(C)cc(C)cc2C)C1=O)=NOc1ccccc1 (centres unmarked) [1-057] | 5 (Herbicidal ratio of 90% or more (almost completely withered)) | 1 (Herbicidal ratio of 5% or higher and lower than 20%) | 3 (Herbicidal ratio of 40% or higher and lower than 70%) | 3 (Herbicidal ratio of 40% or higher and lower than 70%) | 0 (Herbicidal ratio of 5% or lower (almost no effect)) | 0 (Herbicidal ratio of 5% or lower (almost no effect)) | 4 (Herbicidal ratio of 70% or higher and lower than 90%) | 2 (Herbicidal ratio of 20% or higher and lower than 40%) | 4 (Herbicidal ratio of 70% or higher and lower than 90%) | 3 (Herbicidal ratio of 40% or higher and lower than 70%) | 1 (Herbicidal ratio of 5% or higher and lower than 20%) | 0 (Herbicidal ratio of 5% or lower (almost no effect)) | 5 (Herbicidal ratio of 90% or more (almost completely withered)) | 3 (Herbicidal ratio of 40% or higher and lower than 70%) | 5 (Herbicidal ratio of 90% or more (almost completely withered)) | 0 (Herbicidal ratio of 5% or lower (almost no effect)) | 3 (Herbicidal ratio of 40% or higher and lower than 70%) | –
CON=C(C)CC1CC(OC(=O)C(C)(C)Oc2ccccc2Cl)=C(c2c(C)cc(C)cc2C)C1=O (centres unmarked) [1-064] | 5 (Herbicidal ratio of 90% or more (almost completely withered)) | 1 (Herbicidal ratio of 5% or higher and lower than 20%) | 3 (Herbicidal ratio of 40% or higher and lower than 70%) | 5 (Herbicidal ratio of 90% or more (almost completely withered)) | 0 (Herbicidal ratio of 5% or lower (almost no effect)) | 3 (Herbicidal ratio of 40% or higher and lower than 70%) | 5 (Herbicidal ratio of 90% or more (almost completely withered)) | 5 (Herbicidal ratio of 90% or more (almost completely withered)) | 5 (Herbicidal ratio of 90% or more (almost completely withered)) | 5 (Herbicidal ratio of 90% or more (almost completely withered)) | 5 (Herbicidal ratio of 90% or more (almost completely withered)) | 5 (Herbicidal ratio of 90% or more (almost completely withered)) | 5 (Herbicidal ratio of 90% or more (almost completely withered)) | 5 (Herbicidal ratio of 90% or more (almost completely withered)) | 5 (Herbicidal ratio of 90% or more (almost completely withered)) | 3 (Herbicidal ratio of 40% or higher and lower than 70%) | 5 (Herbicidal ratio of 90% or more (almost completely withered)) | –
COCC(CC1CC(O)=C(c2c(C)cc(C)cc2C)C1=O)=NOC (centres unmarked) [1-040] | 5 (Herbicidal ratio of 90% or more (almost completely withered)) | 0 (Herbicidal ratio of 5% or lower (almost no effect)) | 0 (Herbicidal ratio of 5% or lower (almost no effect)) | 4 (Herbicidal ratio of 70% or higher and lower than 90%) | 0 (Herbicidal ratio of 5% or lower (almost no effect)) | 0 (Herbicidal ratio of 5% or lower (almost no effect)) | 4 (Herbicidal ratio of 70% or higher and lower than 90%) | 4 (Herbicidal ratio of 70% or higher and lower than 90%) | 5 (Herbicidal ratio of 90% or more (almost completely withered)) | 4 (Herbicidal ratio of 70% or higher and lower than 90%) | 5 (Herbicidal ratio of 90% or more (almost completely withered)) | 0 (Herbicidal ratio of 5% or lower (almost no effect)) | 4 (Herbicidal ratio of 70% or higher and lower than 90%) | 5 (Herbicidal ratio of 90% or more (almost completely withered)) | 5 (Herbicidal ratio of 90% or more (almost completely withered)) | 0 (Herbicidal ratio of 5% or lower (almost no effect)) | 4 (Herbicidal ratio of 70% or higher and lower than 90%) | –
CON=C(CC1CC(O)=C(c2c(C)cc(Br)cc2C)C1=O)C(C)C (centres unmarked) [9-001] | – | 0 (Herbicidal ratio of 5% or lower (almost no effect)) | – | – | – | 0 (Herbicidal ratio of 5% or lower (almost no effect)) | – | 4 (Herbicidal ratio of 70% or higher and lower than 90%) | – | 4 (Herbicidal ratio of 70% or higher and lower than 90%) | 3 (Herbicidal ratio of 40% or higher and lower than 70%) | – | – | 3 (Herbicidal ratio of 40% or higher and lower than 70%) | – | – | 4 (Herbicidal ratio of 70% or higher and lower than 90%) | b (directly sowed rice plant) effect on crop grade ([1]; Table 24): 5 (Herbicidal ratio of 90% or more (almost completely withered)); Herbicidal effect grade, M: Abutilon theophrasti (Abutilon theophrasti): 0 (Herbicidal ratio of 5% or lower (almost no effect)); E herbicidal effect grade (Cyperus difformis; Table 24): 2 (Herbicidal ratio of 20% or higher and lower than 40%); Effect on crop grade, f: beet (beet [3]): 0 (Herbicidal ratio of 5% or lower (almost no effect)); Herbicidal effect grade, F: Digitaria ciliaris (Digitaria ciliaris [4]): 4 (Herbicidal ratio of 70% or higher and lower than 90%); Herbicidal effect grade, H: Echinochloa crus-galli var. crus-galli [6]: 5 (Herbicidal ratio of 90% or more (almost completely withered)); Effect on crop grade, c: corn (corn): 0 (Herbicidal ratio of 5% or lower (almost no effect)); Herbicidal effect grade, K: Lolium multiflorum Lam. (Lolium multiflorum Lam.): 5 (Herbicidal ratio of 90% or more (almost completely withered)); Effect on crop grade, b: directly sowed rice plant (rice): 4 (Herbicidal ratio of 70% or higher and lower than 90%); Effect on crop grade, e: wheat (wheat): 0 (Herbicidal ratio of 5% or lower (almost no effect))
